According to ChEMBL document CHEMBL1201862, “PubChem BioAssay data set” (2004):
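Values below derive from 48-hour exposures of cells grown in 96-well plates, with endpoints linearly interpolated between the two concentrations bracketing the appropriate inhibition level. GI50 is the concentration that inhibits growth by half.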 Calls of active or inactive are those of the source. Cut-off read from the data, not from the text of the source: active = GI50 up to about 1.1 µM and inactive = higher.

Tests used:
Experiment in all cases: DTP human tumour cell line panel, 48 h
OVCAR-3 = tested on: OVCAR-3
RXF 393 = tested on: RXF 393
SNB-19 = tested on: SNB-19
TK-10 = tested on: TK-10
ACHN = tested on: ACHN
Malme-3M = tested on: Malme-3M
BT-549 = tested on: BT-549
K562 = tested on: K562
SK-OV-3 = tested on: SK-OV-3
SK-MEL-5 = tested on: SK-MEL-5
COLO 205 = tested on: COLO 205
SW-620 = tested on: SW-620
HL-60 = tested on: HL-60
MDA-MB-231 = tested on: MDA-MB-231
LOX IMVI = tested on: LOX IMVI
HCT-116 = tested on: HCT-116
SK-MEL-2 = tested on: SK-MEL-2
CCRF-CEM = tested on: CCRF-CEM
NCI-H522 = tested on: NCI-H522
NCI-H460 = tested on: NCI-H460

Measured: GI50

CSC(=O)c1sc(SC)[n+](-c2ccccc2)c1O
inactive: OVCAR-3 13.2 µM | RXF 393 14.5 µM | SNB-19 19.6 µM | TK-10 18.2 µM | ACHN 27.9 µM | Malme-3M 21.6 µM | BT-549 15.1 µM | K562 16.6 µM | SK-OV-3 34.4 µM | SK-MEL-5 20.8 µM | COLO 205 27.7 µM | SW-620 15.5 µM | HL-60 > 10 µM | MDA-MB-231 11.3 µM | LOX IMVI 12.6 µM | HCT-116 16.8 µM | SK-MEL-2 22 µM | CCRF-CEM 8.28 µM | NCI-H522 10.4 µM | NCI-H460 27.9 µM

COC(=O)/C=C1\C(=O)N(C(C)=O)c2ccc(Br)cc21
inactive: OVCAR-3 4.76 µM | RXF 393 7.46 µM | SNB-19 14.3 µM | TK-10 6.31 µM | ACHN 11.6 µM | Malme-3M 14.1 µM | BT-549 9.08 µM | K562 7.69 µM | SK-OV-3 15.4 µM | SK-MEL-5 9.68 µM | COLO 205 13.7 µM | SW-620 6.03 µM | HL-60 2.23 µM | MDA-MB-231 14.9 µM | LOX IMVI 7.89 µM | HCT-116 6.92 µM | SK-MEL-2 13.9 µM | CCRF-CEM 1.47 µM | NCI-H522 3.73 µM | NCI-H460 14.6 µM

Cn1cnc([N+](=O)[O-])c1Sc1nnc(-c2cccnc2)n1C
inactive: OVCAR-3 17.2 µM | RXF 393 7.83 µM | SNB-19 > 100 µM | TK-10 16.8 µM | ACHN 17.1 µM | Malme-3M 15.5 µM | BT-549 19 µM | K562 19.9 µM | SK-OV-3 > 100 µM | SK-MEL-5 16.9 µM | COLO 205 15.3 µM | SW-620 14.7 µM | HL-60 6.55 µM | MDA-MB-231 19.2 µM | LOX IMVI 17.8 µM | HCT-116 18.4 µM | SK-MEL-2 18.5 µM | CCRF-CEM 15.5 µM | NCI-H522 5.78 µM | NCI-H460 > 85.1 µM

Cc1c2cnccc2c(C)c2c1c1ccccc1n2CCOC(=O)c1ccccc1
inactive: OVCAR-3 12.2 µM | RXF 393 9.75 µM | SNB-19 10.7 µM | TK-10 11.2 µM | ACHN 4.74 µM | Malme-3M 11.5 µM | BT-549 33 µM | K562 9.71 µM | SK-OV-3 5.33 µM | SK-MEL-5 16.2 µM | COLO 205 7.8 µM | SW-620 6.31 µM | HL-60 5.85 µM | MDA-MB-231 38.9 µM | LOX IMVI 8.38 µM | HCT-116 5.41 µM | SK-MEL-2 12.5 µM | CCRF-CEM 7.52 µM | NCI-H522 11.4 µM | NCI-H460 3.45 µM

NC1=NCC(CN2CCOCC2)O1 (stereo not given)
inactive: OVCAR-3 > 100 µM | RXF 393 > 100 µM | SNB-19 > 100 µM | TK-10 > 100 µM | ACHN > 100 µM | Malme-3M > 100 µM | BT-549 > 100 µM | K562 > 100 µM | SK-OV-3 > 100 µM | SK-MEL-5 > 100 µM | COLO 205 > 100 µM | SW-620 > 100 µM | HL-60 > 100 µM | MDA-MB-231 > 100 µM | LOX IMVI > 100 µM | HCT-116 > 100 µM | SK-MEL-2 > 100 µM | CCRF-CEM > 100 µM | NCI-H522 > 100 µM | NCI-H460 > 100 µM

COc1ccc(NC(=O)CC(=O)N2N=C(c3ccccc3)C(/N=N/c3ccc(S(=O)(=O)CCOS(=O)(=O)O)cc3)C2=O)cc1 (stereo not given)
inactive: OVCAR-3 > 100 µM | RXF 393 > 100 µM | SNB-19 > 100 µM | TK-10 > 100 µM | ACHN > 100 µM | Malme-3M > 100 µM | BT-549 > 100 µM | K562 > 100 µM | SK-OV-3 > 100 µM | SK-MEL-5 > 100 µM | COLO 205 > 100 µM | SW-620 > 100 µM | HL-60 > 100 µM | MDA-MB-231 > 100 µM | LOX IMVI > 100 µM | HCT-116 > 100 µM | SK-MEL-2 > 100 µM | CCRF-CEM > 100 µM | NCI-H522 > 100 µM | NCI-H460 > 100 µM

O=C1Nc2ccccc2C1(O)Cc1ccccn1 (stereo not given)
inactive: OVCAR-3 > 100 µM | RXF 393 > 100 µM | SNB-19 > 100 µM | TK-10 > 100 µM | ACHN > 100 µM | Malme-3M > 100 µM | BT-549 > 100 µM | K562 > 100 µM | SK-OV-3 > 100 µM | SK-MEL-5 > 100 µM | COLO 205 > 100 µM | SW-620 > 100 µM | HL-60 > 100 µM | MDA-MB-231 > 100 µM | LOX IMVI > 100 µM | HCT-116 > 100 µM | SK-MEL-2 > 100 µM | CCRF-CEM > 100 µM | NCI-H522 > 100 µM | NCI-H460 > 100 µM
